What follows are molecules tested on production of tumor necrosis factor (TNF) by monocytes activated with bacterial lipopolysaccharide (LPS) (assay: Lipopolysaccharide-activated Monocyte TNF Production Assay). Conditions: Homo sapiens, TNF in culture supernatants by ELISA, read-out: IC50 (concentration of test compounds causing a 50% reduction in TNF production).
Assay type: cell-based
Experimental: Lipopolysaccharide-activated Monocyte TNF Production Assay
Test compounds were evaluated in vitro for the ability to inhibit the production of tumor necrosis factor (TNF) by monocytes activated with bacterial lipopolysaccharide (LPS). Fresh residual source leukocytes (a byproduct of plateletpheresis) were obtained from the local blood bank and peripheral blood mononuclear cells (PBMCs) were isolated by density gradient centrifugation on Ficol-Paque Plus (Pharmacia). PBMCs were suspended at 2×10^6/ml in DMEM supplemented to contain 2% FCS (10 mM), 0.3 mg/ml glutamate, 100 U/ml penicillin G and […] streptomycin sulfate (complete media). Cells were plated into Falcon flatbottom 96 well culture plates (200 μl/well) and cultured overnight at 37° C. and 6% CO2. Nonadherent cells were removed by washing with 200 μl/well of fresh medium. Wells containing adherent cells (˜70% monocytes) were replenished with 100 μl of fresh medium.
Preparation of Test Compound Stock Solutions
Test compounds were dissolved in […]. Compound stock solutions were prepared to an initial concentration of […]. Stocks were diluted initially to 20-200 μM in complete media. Nine two-fold serial dilutions of each compound were then prepared in complete medium.
Treatment of Cells with Test Compounds and Activation of TNF Production with Lipopolysaccharide
One hundred microliters of each test compound dilution were added to microtiter wells containing adherent monocytes and 100 μl complete medium. Monocytes were cultured with test compounds for 60 min at which time 25 μl of complete medium containing 30 ng/ml lipopolysaccharide from E. coli K532 were added to each well. Cells were cultured an additional 4 hrs. Culture supernatants were then removed and TNF present in the supernatants was quantified using an ELISA.
Flat bottom 96 well Coming High Binding ELISA plates were coated overnight (4° C.) with 150 μL/well of 3 μg/ml murine anti-human TNFa MAb (R&D Systems #MAB210). Wells were then blocked 1 h at room temperature with 200 μL/well of CaCl2-free ELISA buffer supplemented to contain 20 mg/ml BSA (standard ELISA buffer: […], 150 mM NaCl, 2 mM CaCl2, 0.15 mM thimerosal, pH 7.4). Plates were washed and replenished with 100 μl of test supernatants (diluted 1:3) or standards. Standards consisted of eleven 1.5-fold serial dilutions from a stock of 1 ng/ml recombinant human TNF (R&D Systems). Plates were incubated at room temperature for 1 h on orbital shaker (300 rpm), washed and replenished with 100 μl/well of 0.5 jig/ml goat anti-human TNFa (R&D systems #AB-210-NA) biotinylated at a 4:1 ratio. Plates were incubate for 40 min, washed and replenished with 100 μl/well of alkaline phosphatase-conjugated streptavidin (Jackson ImmunoResearch #016-050-084) at 0.02 μg/ml. Plates were incubated 30 min, washed and replenished with 200 μl well of 1 mg/ml of p-nitrophenyl phosphate. After 30 min, plates were read at 405 nm on a Vmax plate reader.
Standard curve data were fit to a second order polynomial and unknown TNF-a concentrations determined from their OD by solving this equation for concentration. TNF concentrations were then plotted Vs test compound concentration using a second order polynomial. This equation was then used to calculate the concentration of test compounds causing a 50% reduction in TNF production.
With `CNCC(=O)Nc1ccc2c(-c3ccncc3)c(-c3ccc(F)cc3)[nH]c2n1` [Compound 105, 6-(2′-N-methyl-amino-1′-oxo-ethylamino)-3-(4-pyridyl)-2-(4-fluorophenyl)-7-aza-indole] the IC50 was < 1 µM.
`CC(C)(C)OC(=O)NCCCC(=O)Nc1ccc2c(-c3ccncc3)c(-c3ccc(F)cc3)[nH]c2n1` [Compound 21, 6-(4′-t-butoxycarbonylamino-1′-oxo-butylamino)-3-(4-pyridyl)-2-(4-fluorophenyl)-7-aza-indole] was tested, and the IC50 was < 20 µM.
With `C[C@H](N)C(=O)Nc1ccc2c(-c3ccncc3)c(-c3ccc(F)cc3)[nH]c2n1` [Compound 123, 6-(1′-oxo-2′S-aminopropylamino)-3-(4-pyridyl)-2-(4-fluorophenyl)-7-aza-indole] the IC50 was < 1 µM.
In the case of `N[C@@H](Cc1cnc[nH]1)C(=O)Nc1ccc2c(-c3ccncc3)c(-c3ccc(F)cc3)[nH]c2n1` [Compound 113, 6-(L-histidinylamino)-3-(4-pyridyl)-2-(4-fluorophenyl)-7-aza-indole], the IC50 is reported as < 20 µM.
In the case of `[N-]=[N+]=Nc1ccc(C[C@H](N)C(=O)Nc2ccc3c(-c4ccncc4)c(-c4ccc(F)cc4)[nH]c3n2)cc1` [Compound 135, 6-(3′-(4-azidophenyl)-1′-oxo-2′S-aminopropylamino)-3-(4-pyridyl)-2-(4-fluorophenyl)-7-aza-indole], the IC50 is reported as < 20 µM.
`NCCCC[C@H](N)C(=O)Nc1ccc2c(-c3ccncc3)c(-c3ccc(F)cc3)[nH]c2n1` [Compound 67, 6-(6′-amino-1′-oxo-2′-aminohexylamino)-3-(4-pyridyl)-2-(4-fluorophenyl)-7-aza-indole] was tested, and the IC50 was < 20 µM.
`CN(CC(=O)Nc1ccc2c(-c3ccncc3)c(-c3ccc(F)cc3)[nH]c2n1)C(=O)OC(C)(C)C` [Compound 104, 6-(2′-N-methyl-t-butoxycarbonylamino-1′-oxo-ethylamino)-3-(4-pyridyl)-2-(4-fluorophenyl)-7-aza-indole] was tested, and the IC50 was < 1 µM.
With `NCC(=O)Nc1ccc2c(-c3ccncc3)c(-c3ccc(F)cc3)[nH]c2n1` [Compound 92, 6-(2′-amino-1′-oxo-ethylamino)-3-(4-pyridyl)-2-(4-fluorophenyl)-7-aza-indole] the IC50 was < 1 µM.
For `CC(C)[C@H](N)C(=O)Nc1ccc2c(-c3ccncc3)c(-c3ccc(F)cc3)[nH]c2n1` [Compound 73, 6-(3′-Methyl-1′-oxo-2′-aminobutylamino)-3-(4-pyridyl)-2-(4-fluorophenyl)-7-aza-indole], the IC50 was < 20 µM.
In the case of `NCCCC(=O)Nc1ccc2c(-c3ccncc3)c(-c3ccc(F)cc3)[nH]c2n1` [Compound 22, 6-(4′-amino-1′-oxo-butylamino)-3-(4-pyridyl)-2-(4-fluorophenyl)-7-aza-indole], the IC50 is reported as < 20 µM.
`Nc1nc2[nH]c(-c3ccc(F)cc3)c(-c3ccncc3)c2cc1F` [Compound 28, 6-Amino-5-fluoro-3-(4-pyridyl)-2-(4-fluorophenyl)-7-aza-indole] was tested, and the IC50 was < 20 µM.
`CCCCC(CC)CNc1ccc2c(-c3ccncc3)c(-c3ccc(F)cc3)[nH]c2n1` (racemic) [Compound 148, 6-(2′(R,S)-ethylhexylamino)-3-(4-pyridyl)-2-(4-fluorophenyl)-7-aza-indole] was tested, and the IC50 was < 20 µM.
With `NC(=O)NCCC[C@H](N)C(=O)Nc1ccc2c(-c3ccncc3)c(-c3ccc(F)cc3)[nH]c2n1` [Compound 65, 6-(5′-ureido-1′-oxo-2′-aminopentylamino)-3-(4-pyridyl)-2-(4-fluorophenyl)-7-aza-indole] the IC50 was < 20 µM.
For `CC(C)(C)OC(=O)NCCCC[C@H](NC(=O)OC(C)(C)C)C(=O)Nc1ccc2c(-c3ccncc3)c(-c3ccc(F)cc3)[nH]c2n1` [Compound 66, 6-(6′-t-butoxycarbonylamino-1′-oxo-2′-t-butoxycarbonylaminohexylamino)-3-(4-pyridyl)-2-(4-fluorophenyl)-7-aza-indole], the IC50 was < 20 µM.
`Fc1ccc(-c2[nH]c3ccccc3c2-c2ccncc2)cc1` [Compound 3, 3-(4-pyridyl)-2-(4-fluorophenyl)indole] was tested, and the IC50 was < 20 µM.
